According to the supplement of paper PMC10307832:

What was measured:
Assay in all cases: relative viability (nuclei count vs DMSO), 5 days (fraction); higher = more cells survive
[1] = tested on: NCI-H596
Method in brief: (§1)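 For relative viability, nuclei counts in treated wells were divided by those in vehicle wells. Lung cancer cell lines had been pin-tool dosed in 1536-well plates the day after seeding and cultured for 5 days, then fixed and stained in one step (final 0.05% Triton X-100, 1% formaldehyde, 1 ug/ml Hoechst) and imaged at 4×. Doses were one drug alone or a fixed anchor-drug dose plus five library-drug doses (not always all listed) in √10 steps, and values are duplicate-plate medians.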

[2] = tested on: HOP-62
Method in brief: as §1

[3] = tested on: NCI-H1944
Method in brief: as §1

[4] = tested on: NCI-H1437
Method in brief: as §1

[5] = tested on: NCI-H3122
Method in brief: as §1

[6] = tested on: COR-L23
Method in brief: as §1

[7] = tested on: NCI-H661
Method in brief: as §1

[8] = tested on: NCI-H1650
Method in brief: as §1

[9] = tested on: NCI-H1395
Method in brief: as §1

[10] = tested on: NCI-H2087
Method in brief: as §1

[11] = tested on: NCI-H1793
Method in brief: as §1

[12] = tested on: NCI-H441
Method in brief: as §1

[13] = tested on: NCI-H2126
Method in brief: as §1

[14] = tested on: EPLC-272H
Method in brief: as §1

[15] = tested on: HCC-78
Method in brief: as §1

[16] = tested on: NCI-H1666
Method in brief: as §1

[17] = tested on: ChaGo-K-1
Method in brief: as §1

[18] = tested on: LXF-289
Method in brief: as §1

[19] = tested on: HARA
Method in brief: as §1

[20] = tested on: LCLC-97TM1
Method in brief: as §1

[21] = tested on: PC-14
Method in brief: as §1

[22] = tested on: H3255
Method in brief: as §1

[23] = tested on: NCI-H2085
Method in brief: as §1

CCNC(=O)c1noc(-c2cc(C(C)C)c(O)cc2O)c1-c1ccc(CN2CCOCC2)cc1 [Luminespib] + Nc1ncn([C@H]2C[C@H](O)[C@@H](CO)O2)c(=O)n1 [Decitabine] (partner 2 µM)
relative viability ([1]; first compound 0.002 µM): 1.07
relative viability ([1]; first compound 0.006325 µM): 0.887
relative viability ([1]; first compound 0.02 µM): 0.88
relative viability ([1]; first compound 0.06325 µM): 0.991
relative viability ([1]; first compound 0.2 µM): 1.01
relative viability ([2]; first compound 0.002 µM): 0.219
relative viability ([2]; first compound 0.006325 µM): 0.297
relative viability ([2]; first compound 0.02 µM): 0.267
relative viability ([2]; first compound 0.06325 µM): 0.223
relative viability ([2]; first compound 0.2 µM): 0.174
relative viability ([3]; first compound 0.002 µM): 0.493
relative viability ([3]; first compound 0.006325 µM): 0.454
relative viability ([3]; first compound 0.02 µM): 0.405
relative viability ([3]; first compound 0.06325 µM): 0.405
relative viability ([3]; first compound 0.2 µM): 0.415
relative viability ([4]; first compound 0.002 µM): 0.606
relative viability ([4]; first compound 0.006325 µM): 0.605
relative viability ([4]; first compound 0.02 µM): 0.64
relative viability ([4]; first compound 0.06325 µM): 0.428
relative viability ([4]; first compound 0.2 µM): 0.229
relative viability ([5]; first compound 0.002 µM): 0.474
relative viability ([5]; first compound 0.006325 µM): 0.413
relative viability ([5]; first compound 0.02 µM): 0.29
relative viability ([5]; first compound 0.06325 µM): 0.418
relative viability ([5]; first compound 0.2 µM): 0.403
relative viability ([6]; first compound 0.002 µM): 0.502
relative viability ([6]; first compound 0.006325 µM): 0.374
relative viability ([6]; first compound 0.02 µM): 0.353
relative viability ([6]; first compound 0.06325 µM): 0.0888
relative viability ([6]; first compound 0.2 µM): 0.0903
relative viability ([7]; first compound 0.002 µM): 0.554
relative viability ([7]; first compound 0.006325 µM): 0.544
relative viability ([7]; first compound 0.02 µM): 0.454
relative viability ([7]; first compound 0.06325 µM): 0.315
relative viability ([7]; first compound 0.2 µM): 0.309
relative viability ([8]; first compound 0.002 µM): 0.463
relative viability ([8]; first compound 0.006325 µM): 0.565
relative viability ([8]; first compound 0.02 µM): 0.267
relative viability ([8]; first compound 0.06325 µM): 0.137
relative viability ([8]; first compound 0.2 µM): 0.133
relative viability ([9]; first compound 0.002 µM): 0.745
relative viability ([9]; first compound 0.006325 µM): 0.694
relative viability ([9]; first compound 0.02 µM): 0.634
relative viability ([9]; first compound 0.06325 µM): 0.382
relative viability ([9]; first compound 0.2 µM): 0.357
relative viability ([10]; first compound 0.002 µM): 0.25
relative viability ([10]; first compound 0.006325 µM): 0.235
relative viability ([10]; first compound 0.02 µM): 0.189
relative viability ([10]; first compound 0.06325 µM): 0.145
relative viability ([10]; first compound 0.2 µM): 0.101
relative viability ([11]; first compound 0.002 µM): 0.499
relative viability ([11]; first compound 0.006325 µM): 0.457
relative viability ([11]; first compound 0.02 µM): 0.369
relative viability ([11]; first compound 0.06325 µM): 0.151
relative viability ([11]; first compound 0.2 µM): 0.185
relative viability ([12]; first compound 0.002 µM): 0.255
relative viability ([12]; first compound 0.006325 µM): 0.26
relative viability ([12]; first compound 0.02 µM): 0.184
relative viability ([12]; first compound 0.06325 µM): 0.155
relative viability ([12]; first compound 0.2 µM): 0.134
relative viability ([13]; first compound 0.002 µM): 0.573
relative viability ([13]; first compound 0.006325 µM): 0.587
relative viability ([13]; first compound 0.06325 µM): 0.593
relative viability ([13]; first compound 0.2 µM): 0.507
relative viability ([14]; first compound 0.002 µM): 0.393
relative viability ([14]; first compound 0.006325 µM): 0.337
relative viability ([14]; first compound 0.02 µM): 0.311
relative viability ([14]; first compound 0.06325 µM): 0.282
relative viability ([14]; first compound 0.2 µM): 0.106
relative viability ([15]; first compound 0.002 µM): 0.644
relative viability ([15]; first compound 0.006325 µM): 0.611
relative viability ([15]; first compound 0.02 µM): 0.666
relative viability ([15]; first compound 0.06325 µM): 0.725
relative viability ([15]; first compound 0.2 µM): 0.448
relative viability ([16]; first compound 0.002 µM): 0.701
relative viability ([16]; first compound 0.006325 µM): 0.676
relative viability ([16]; first compound 0.02 µM): 0.715
relative viability ([16]; first compound 0.06325 µM): 0.71
relative viability ([16]; first compound 0.2 µM): 0.544
relative viability ([17]; first compound 0.002 µM): 0.544
relative viability ([17]; first compound 0.006325 µM): 0.492
relative viability ([17]; first compound 0.02 µM): 0.528
relative viability ([17]; first compound 0.06325 µM): 0.522
relative viability ([17]; first compound 0.2 µM): 0.535
relative viability ([18]; first compound 0.002 µM): 0.397
relative viability ([18]; first compound 0.006325 µM): 0.354
relative viability ([18]; first compound 0.02 µM): 0.424
relative viability ([18]; first compound 0.06325 µM): 0.392
relative viability ([18]; first compound 0.2 µM): 0.367
relative viability ([19]; first compound 0.002 µM): 0.55
relative viability ([19]; first compound 0.006325 µM): 0.569
relative viability ([19]; first compound 0.02 µM): 0.532
relative viability ([19]; first compound 0.06325 µM): 0.225
relative viability ([19]; first compound 0.2 µM): 0.227
relative viability ([20]; first compound 0.002 µM): 0.249
relative viability ([20]; first compound 0.006325 µM): 0.258
relative viability ([20]; first compound 0.06325 µM): 0.233
relative viability ([20]; first compound 0.2 µM): 0.154
relative viability ([21]; first compound 0.002 µM): 0.23
relative viability ([21]; first compound 0.006325 µM): 0.21
relative viability ([21]; first compound 0.02 µM): 0.123
relative viability ([21]; first compound 0.06325 µM): 0.076
relative viability ([21]; first compound 0.2 µM): 0.0786
relative viability ([22]; first compound 0.002 µM): 0.639
relative viability ([22]; first compound 0.02 µM): 0.446
relative viability ([22]; first compound 0.06325 µM): 0.425
relative viability ([22]; first compound 0.2 µM): 0.222
relative viability ([23]; first compound 0.002 µM): 0.547
relative viability ([23]; first compound 0.006325 µM): 0.577
relative viability ([23]; first compound 0.02 µM): 0.519
relative viability ([23]; first compound 0.06325 µM): 0.486
relative viability ([23]; first compound 0.2 µM): 0.346
